According to patent publication US9611251B2, “Substituted piperidine compounds and their use as orexin receptor modulators” (Janssen Pharmaceutica NV, priority 2013, dated 2017):
Where a name gives a salt, the structure may show the parent alone. Read-outs that look alike come from different tables or passages of the source.

Assays:
rat orexin 1 receptor = rat orexin 1 receptor (Rattus norvegicus, UniProt P56718); test: Rat orexin 1 receptor radioligand binding
Method: (§1) Data are analyzed using pc-Sandy macro and graphed on Graphpad Prism 5. For analysis, each concentration point is averaged from triplicate values and the averaged values are plotted on Graphpad Prism. The IC50 was determined by applying the following equation (GraphPad Prism 5.0, SanDiego) for one site competition where X=log (concentration) and Y=specific binding. Top denotes the total [^3H]-(1-(5-(2-fluoro-phenyl)-2-methyl-thiazol-4-yl)-1-((S)-2-(5-phenyl-(1,3,4)oxadiazol-2-ylmethyl)-pyrrolidin-1-yl)-methanone) binding, bottom denotes the nonspecific [^3H]-(1-(5-(2-fluoro-phenyl)-2-methyl-thiazol-4-yl)-1-((S)-2-(5-phenyl-(1,3,4)oxadiazol-2-ylmethyl)-pyrrolidin-1-yl)-methanone) binding. Graphpad Prism calculates Ki value from IC50 and the pre-determined Kd values for [^3H]-(1-(5-(2-fluoro-phenyl)-2-methyl-thiazol-4-yl)-1-((S)-2-(5-phenyl-(1,3,4)oxadiazol-2-ylmethyl)-pyrrolidin-1-yl)-methanone) and [3H]-EMPA. The Ki for each compound is then uploaded into 3DX. Each run comprises individual compounds in triplicate.
(§2) Rat and Human Orexin 1 Receptor Radioligand Binding Studies
After centrifugation (2K×G, 5 min at 4° C.), the supernatant was aspirated and the pellets frozen and stored at −80° C. […] Each cell pellet from a 15 cm plate was resuspended in 10 mL, stored on ice, and homogenized for 45 sec prior to addition to the reactions. Competition binding experiments in 96 well polypropylene plates were performed using [^3H]-(1-(5-(2-fluoro-phenyl)-2-methyl-thiazol-4-yl)-1-((S)-2-(5-phenyl-(1,3,4)oxadiazol-2-ylmethyl)-pyrrolidin-1-yl)-methanone) (Moraveck Corporation, specific activity=35.3 Ci/mmol), diluted to a 10 nM concentration in PBS (4 nM final). […] The final concentration of DMSO in the reactions is equal to or less than 0.1%. Total and nonspecific binding was determined in the absence and presence of 10 μM almorexant. The total volume of each reaction is 200 μL (20 μL of diluted compounds, 80 μL of [^3H]-(1-(5-(2-fluoro-phenyl)-2-methyl-thiazol-4-yl)-1-((S)-2-(5-phenyl-(1,3,4)oxadiazol-2-ylmethyl)-pyrrolidin-1-yl)-methanone) diluted in PBS and 100 μL of the cell suspension). […] The plates were washed 3 times by aspirating 30 ml PBS through the plates. Plates were dried in 55° C. oven for 60 min, scintillation fluid was added, and the radioactivity was counted on a Topcount (Packard).

human orexin 1 receptor = human orexin 1 receptor (Homo sapiens, UniProt O43613); test: Human orexin 1 receptor radioligand binding
Method: The in vitro affinity of the compounds of the invention for the rat/human orexin 1 and human orexin 2 receptors was determined by competitive radioligand binding using [^3H](1-(5-(2-fluoro-phenyl)-2-methyl-thiazol-4-yl)-1-((S)-2-(5-phenyl-(1,3,4)oxadiazol-2-ylmethyl)-pyrrolidin-1-yl)-methanone) (Langmead et al., 2004) and [^3H]EMPA (n-ethyl-2[96-methoxypyridin-3-yl)-(toluene-2-sulfonyl)-amino]-N-pyridin-3-ylmethyl acetamide), respectively (Langmead et al., 2004, British Journal of Pharmacology 141:340-346; Malherbe et al., 2004, British Journal of Pharmacology 156:1326-41).
as §1, §2
Human Embryonic Kidney 293 cells (HEK293) stably expressing rat orexin 1 receptor (Genebank accession number NM_001525) or Chinese ovary cells (CHO) stably expressing human orexin 1 receptor (Genebank accession number NM_001526) were grown to confluency in DMEM (Hyclone, cat #SH30022), 10% FBS, 1×Pen/Strep, 1× sodium pyruvate, 10 mM HEPES, 600 μg/mL G418 and DMEM/F12 (Gibco, Cat #11039), 10% FBS, 1×Pen/Strep, 600 μg/mL G418 media, respectively on 150 cm^2 tissue culture plates, washed with 5 mM EDTA in PBS (HyClone Dulbecco's Phosphate Buffered Saline 1× with Calcium and Magnesium, Cat #SH30264.01, hereafter referred to simply as PBS) and scraped into 50 ml tubes. After centrifugation (2K×G, 5 min at 4° C.), the supernatant was aspirated and the pellets frozen and stored at −80° C. Cells were resuspended in PBS in the presence of 1 tablet of protease inhibitor cocktail (Roche, Cat. #11836145001) per 50 mL. Each cell pellet from a 15 cm plate was resuspended in 10 mL, stored on ice, and homogenized for 45 sec prior to addition to the reactions. Competition binding experiments in 96 well polypropylene plates were performed using [^3H]-(1-(5-(2-fluoro-phenyl)-2-methyl-thiazol-4-yl)-1-((S)-2-(5-phenyl-(1,3,4)oxadiazol-2-ylmethyl)-pyrrolidin-1-yl)-methanone) (Moraveck Corporation, specific activity=35.3 Ci/mmol), diluted to a 10 nM concentration in PBS (4 nM final). […] The final concentration of DMSO in the reactions is equal to or less than 0.1%. Total and nonspecific binding was determined in the absence and presence of 10 μM almorexant. The total volume of each reaction is 200 μL (20 μL of diluted compounds, 80 μL of [^3H]-(1-(5-(2-fluoro-phenyl)-2-methyl-thiazol-4-yl)-1-((S)-2-(5-phenyl-(1,3,4)oxadiazol-2-ylmethyl)-pyrrolidin-1-yl)-methanone) diluted in PBS and 100 μL of the cell suspension). Reactions were run for 60 min at room temperature and terminated by filtration through GF/C filter plates (PerkinElmer, Cat. #6005174) presoaked in 0.3% polyethylenimine using the cell harvester (PerkinElmer Filtermate). The plates were washed 3 times by aspirating 30 ml PBS through the plates. Plates were dried in 55° C. oven for 60 min, scintillation fluid was added, and the radioactivity was counted on a Topcount (Packard).

human orexin 2 receptor = human orexin 2 receptor (Homo sapiens (Human), UniProt O43614); test: Human orexin 2 receptor radioligand binding ([3H]-EMPA); conditions: averages of 2-20 runs, read-out: hOX2 Ki
Method: as §1
Human Orexin 2 Receptor Radioligand Binding Studies
HEK293 stably expressing human orexin 2 receptor (Genebank accession number NM_001526) were grown to confluency in DMEM (Hyclone, cat #SH30022), 10% FBS, 1×Pen/Strep, 1× NaPyruvate, 10 mM HEPES, 600 ug/ml G418 media on 150 cm^2 tissue culture plates, washed with 5 mM EDTA in PBS (HyClone Dulbecco's Phosphate Buffered Saline 1× with Calcium and Magnesium, Cat #SH30264.01, hereafter referred to simply as PBS) and scraped into 50 ml tubes. After centrifugation (2K×G, 5 min at 4° C.), the supernatant was aspirated and the pellets frozen and stored at −80° C. […] Each cell pellet from a 15 cm plate was resuspended in 10 mL, stored on ice, and homogenized for 45 sec just prior to addition to the reactions. Competition binding experiments in 96 well polypropylene plates were performed using [^3H]-EMPA (Moraveck Corporation, specific activity=29.6 Ci/mmol), diluted to a 5 nM concentration in PBS (2 nM final concentration). […] The final concentration of DMSO in the reactions is equal to or less than 0.1%. Total and nonspecific binding was determined in the absence and presence of 10 μM almorexant. The total volume of each reaction is 200 μL (20 μL of diluted compounds, 80 μL of [^3H]-EMPA diluted in PBS and 100 μL of the cell suspension). […] The plates were washed 3 times by aspirating 30 ml PBS through the plates. Plates were dried in 55° C. oven for 60 min, scintillation fluid was added, and the radioactivity was counted on a Topcount (Packard).

[1] = rat orexin 1 receptor radioligand binding, averages of 2-20 runs, read-out: rOX1 Ki

human orexin 2 receptor, sequence (O43614 whole entry): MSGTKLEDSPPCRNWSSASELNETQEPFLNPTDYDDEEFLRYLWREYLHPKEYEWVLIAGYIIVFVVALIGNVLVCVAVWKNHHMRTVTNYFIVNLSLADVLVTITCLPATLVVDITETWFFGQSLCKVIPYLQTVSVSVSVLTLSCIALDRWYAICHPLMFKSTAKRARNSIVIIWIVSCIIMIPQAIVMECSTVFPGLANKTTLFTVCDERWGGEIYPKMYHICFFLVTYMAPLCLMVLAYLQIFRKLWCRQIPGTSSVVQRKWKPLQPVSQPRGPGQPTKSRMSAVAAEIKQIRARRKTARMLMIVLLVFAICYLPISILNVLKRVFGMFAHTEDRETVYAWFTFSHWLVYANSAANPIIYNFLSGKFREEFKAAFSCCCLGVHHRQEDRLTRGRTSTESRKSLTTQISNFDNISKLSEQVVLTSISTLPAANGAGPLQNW

Compound	Ki (rat orexin 1 receptor) [nM]	Ki (human orexin 1 receptor) [nM]	Ki (rat orexin 1 receptor; [1]) [nM]	Ki (human orexin 1 receptor; human orexin 1 receptor radioligand binding, averages of 2-20 runs, read-out: hOX1 Ki) [nM]	Ki (human orexin 2 receptor) [nM]
Cc1ccc(-c2ncco2)c(C(=O)N2CCC[C@@H](Nc3ccc(C(F)(F)F)cn3)[C@@H]2C)n1 (racemic) [Example 22, (±)-trans-(2-methyl-3-((5-(trifluoromethyl)pyridin-2-yl)amino)piperidin-1-yl)(6-methyl-3-(oxazol-2-yl)pyridin-2-yl)methanone hydrochloride]	36	21	–	–	–
Cc1cnc(C(=O)N2CCC[C@@H](Nc3cnc(Cl)cn3)[C@@H]2C)c(-n2nccn2)c1 (relative stereo) [Example 182, ((2S*,3R*)-3-((5-chloropyrazin-2-yl)amino)-2-methylpiperidin-1-yl)(5-methyl-3-(2H-1,2,3-triazol-2-yl)pyridin-2-yl)methanone]	–	–	93	148	–
Cc1noc(-c2cc(F)ccc2C(=O)N2CCC[C@@H](Nc3ncc(C(F)(F)F)cn3)[C@@H]2C)n1 (relative stereo) [Example 197, (4-fluoro-2-(3-methyl-1,2,4-oxadiazol-5-yl)phenyl)((2S*,3R*)-2-methyl-3-((5-(trifluoromethyl)pyrimidin-2-yl)amino)piperidin-1-yl)methanone]	–	–	332	–	6600
COc1ccc(C(=O)N2CCC[C@@H](Nc3ncc(C(F)(F)F)cn3)[C@@H]2C)c(Cl)n1 (relative stereo) [Example 201, (2-chloro-6-methoxypyridin-3-yl)((2S*,3R*)-2-methyl-3-((5-(trifluoromethyl)pyrimidin-2-yl)amino)piperidin-1-yl)methanone]	–	–	> 10000	–	> 10000
C[C@H]1[C@H](Nc2ncc(C(F)(F)F)cn2)CCCN1C(=O)c1ccc(F)cc1-c1ncco1 (relative stereo) [Example 205, (4-fluoro-2-(oxazol-2-yl)phenyl)((2S*,3R*)-2-methyl-3-((5-(trifluoromethyl)pyrimidin-2-yl)amino)piperidin-1-yl)methanone]	–	–	411	–	5800
Cc1cnc(C(=O)N2CCC[C@@H](Nc3nc4ccccc4o3)[C@@H]2C)c(-n2nccn2)c1 [Example 73, ((2S,3R)-3-(benzo[d]oxazol-2-ylamino)-2-methylpiperidin-1-yl)(5-methyl-3-(2H-1,2,3-triazol-2-yl)pyridin-2-yl)methanone]	–	–	8	–	2270
C[C@H]1[C@H](Oc2cnc(C(F)(F)F)cn2)CCCN1C(=O)c1cccnc1-n1nccn1 [Example 148, (2-(2H-1,2,3-triazol-2-yl)pyridin-3-yl)((2S,3R)-2-methyl-3-((5-(trifluoromethyl)pyrazin-2-yl)oxy)piperidin-1-yl)methanone]	–	–	3400	–	> 10000
C[C@H]1[C@H](Oc2ccc(C(F)(F)F)cn2)CCCN1C(=O)c1cccnc1-n1nccn1 [Example 153, (2-(2H-1,2,3-triazol-2-yl)pyridin-3-yl)((2S,3R)-2-methyl-3-((5-(trifluoromethyl)pyridin-2-yl)oxy)piperidin-1-yl)methanone]	–	–	353	–	> 10000
Cc1cnc(-n2nccn2)c(C(=O)N2CCC[C@@H](Oc3ncc(Cl)cn3)[C@@H]2C)c1 [Example 162, ((2S,3R)-3-((5-chloropyrimidin-2-yl)oxy)-2-methylpiperidin-1-yl)(5-methyl-2-(2H-1,2,3-triazol-2-yl)pyridin-3-yl)methanone]	–	–	621	–	> 10000
COc1ccc(C(=O)N2CCC[C@@H](Oc3cnc(C(F)(F)F)cn3)[C@@H]2C)c(-n2nccn2)c1 [Example 172, (4-methoxy-2-(2H-1,2,3-triazol-2-yl)phenyl)((2S,3R)-2-methyl-3-((5-(trifluoromethyl)pyrazin-2-yl)oxy)piperidin-1-yl)methanone]	–	–	447	–	> 10000
C[C@H]1[C@H](Oc2cnc(C(F)(F)F)cn2)CCCN1C(=O)c1nccnc1-c1ccccc1 [Example 173, ((2S,3R)-2-methyl-3-((5-(trifluoromethyl)pyrazin-2-yl)oxy)piperidin-1-yl)(3-phenylpyrazin-2-yl)methanone]	–	–	423	–	8200
COc1ccc(C(=O)N2CCC[C@@H](Oc3ncc(C(F)(F)F)cn3)[C@@H]2C)c(-n2nccn2)c1 [Example 174, (4-methoxy-2-(2H-1,2,3-triazol-2-yl)phenyl)((2S,3R)-2-methyl-3-((5-(trifluoromethyl)pyrimidin-2-yl)oxy)piperidin-1-yl)methanone]	–	–	504	–	> 10000
Cc1cnc(-n2nccn2)c(C(=O)N2CCC[C@@H](Oc3ncc(C(F)(F)F)cn3)[C@@H]2C)c1 [Example 176, (5-methyl-2-(2H-1,2,3-triazol-2-yl)pyridin-3-yl)((2S,3R)-2-methyl-3-((5-(trifluoromethyl)pyrimidin-2-yl)oxy)piperidin-1-yl)methanone]	–	–	374	–	> 10000
C[C@H]1[C@H](Oc2ncc(C(F)(F)F)cn2)CCCN1C(=O)c1nccnc1-c1ccccc1 [Example 178, ((2S,3R)-2-methyl-3-((5-(trifluoromethyl)pyrimidin-2-yl)oxy)piperidin-1-yl)(3-phenylpyrazin-2-yl)methanone]	–	–	679	–	> 10000
